Reference: patent publication US20210228523A1, “MODULATORS OF SESTRIN-GATOR2 INTERACTION AND USES THEREOF” (Navitor Pharmaceuticals, Inc., priority 2017, published 2021)

Assays:
mTORC1 signaling = test: Cell-based mTORC1 activation (Method 2): western blot of phosphorylated S6 Kinase/4EBP1 in leucine-starved HEK293T cells; details: concentration 100 μM, shift relative to DMSO control
Experimental: Briefly, 800,000 HEK293T cells were plated in each well of a 6-well plate in DMEM supplemented with 10% fetal bovine serum and antibiotics. […] Cells were then lysed, processed for SDS-PAGE and western blotting was performed with antibodies directed against the mTORC1 substrates phosphorylated S6 Kinase (Thr389) and phosphorylated 4EBP1 (Thr37/46) (Cell Signaling Technology) and loading controls (beta-actin, Santa Cruz Biotechnology) as described in Kang, S. A., et al. Science 341(6144): 364-374 (2013). The intensity of the bands corresponding to the phosphorylated substrates were then normalized to the actin band using the LI-COR® imaging platform.

[1] = target: T1, GATOR2/Sestrin2 complexes (Homo sapiens, UniProt P58004); test: In vitro PPI assay (Method 1; Western blot assay): Sestrin2 bound to GATOR2 after compound addition to immunoprecipitated FLAG-WDR24 complex; type: binding; details: 25 μM, % activity relative to leucine (25 μM = 100%)
T1 construct: endogenous in cells; host or cells: HEK293T cells stably expressing FLAG-WDR24 (lentiviral, pLJM60)
T1 sequence (P58004 1-480): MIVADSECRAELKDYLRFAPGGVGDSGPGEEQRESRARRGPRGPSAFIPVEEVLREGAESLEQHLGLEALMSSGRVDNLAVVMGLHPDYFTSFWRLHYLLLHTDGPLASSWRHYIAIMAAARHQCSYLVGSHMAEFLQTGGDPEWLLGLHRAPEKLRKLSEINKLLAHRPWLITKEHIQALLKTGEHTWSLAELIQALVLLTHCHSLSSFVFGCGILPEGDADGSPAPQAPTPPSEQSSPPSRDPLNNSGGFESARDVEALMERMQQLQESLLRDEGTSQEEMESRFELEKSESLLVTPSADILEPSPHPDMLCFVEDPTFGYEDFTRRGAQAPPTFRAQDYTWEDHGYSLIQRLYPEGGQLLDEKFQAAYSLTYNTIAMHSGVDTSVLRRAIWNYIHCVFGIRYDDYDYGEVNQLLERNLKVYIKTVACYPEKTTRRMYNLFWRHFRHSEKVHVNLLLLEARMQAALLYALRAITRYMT
Source text: This screening assay measured test compound activity in vitro on GATOR2/Sestrin2 complexes purified via immunoprecipitation of stably expressed FLAG-WDR24 from HEK293T cells. HEK293T cells (293 Ts) were engineered to stably express N-terminally tagged FLAG-WDR24 via transduction by lentivirus. Lentiviruses were produced by co-transfection of the lentiviral transfer vector pLJM60 with the […] into HEK-293T cells using the XTremeGene 9 transfection reagent (Roche Diagnostics). The media was changed 24 hours post-transfection to Dulbecco's Modified Eagle's media (DMEM) supplemented with 30% Inactivated Fetal Serum. The virus-containing supernatants were collected 48 and 72 hours after transfection and passed through a 0.45 μm filter to eliminate cells. Target cells in 6-well tissue culture plates were infected in media containing 8 μg/mL polybrene and spin infections were performed by centrifugation at 2,200 rpm for 1 hour. Twenty-four hours after infection, the virus was removed and the cells selected with the appropriate antibiotic. Cells were then grown in DMEM supplemented with 10% fetal bovine serum and antibiotics.
Seventy-two hours later, cells were placed in standard RPMI media formulated with no amino acids and supplemented with 5 mM Glucose (−AA RPMI, US Biological Life Sciences) for 1 hour then subsequently lysed in lysis buffer (40 mM HEPES, 1% Triton, 10 mM sodium β-glycerophosphate, 10 mM sodium pyrophosphate, 2.5 mM MgCl2 and protease inhibitors). To isolate the FLAG-WDR24/endogenous-Sestrin2 complex, crude lysate (equivalent to 2-4 mg of total protein) in a volume of 1 ml was subjected to immunoprecipitation with 30 μl of anti-flag resin (SIGMA) for 2 hours at 4° C., washed twice in cold lysis buffer plus 0.5M NaCl and resuspended in 1 ml of cold cytosolic buffer (40 mM HEPES pH 7.4, 140 mM KCl, 10 mM NaCl, 2.5 mM MgCl2, 0.1% TritonX-100). […] After the incubation period, samples were centrifuged to pellet the FLAG-WDR24/endogenous-Sestrin2 complex bound to the anti-flag resin, the supernatant was completely removed and resin was resuspended in SDS-PAGE sample buffer and boiled for 5 minutes. Samples were then processed by SDS-PAGE and western blots were performed with anti-FLAG (SIGMA) and anti-Sestrin2 (Cell Signaling Technology) antibodies as described in L. Chantranupong, et al., Cell Reports 9:1-8 (2014).
The resulting western blots were scanned and band intensities corresponding to Sestrin2 and FLAG-WDR24 were quantified using the LI-COR® imaging platform. To determine the amount of Sestrin2 bound to GATOR2 for each condition, the band intensity for Sestrin2 was normalized to the band intensity of FLAG-WDR24. […]
72 hours later, cells were placed in standard RPMI media formulated with no amino acids and supplemented with 5 mM Glucose (−AA RPMI, USBiological Life Sciences) for 1 hour then subsequently lysed in lysis buffer (40 mM HEPES, 1% Triton, 10 mM Sodium Beta-Glycerophosphate, 10 mM Sodium Pyrophosphate, 2.5 mM MgCl2 and protease inhibitors). The Flag-WDR24/endogenous-Sestrin2 complex was isolated as follows: crude lysate (equivalent to 2-4 mg of total protein) in a volume of 1 ml was subjected to immunoprecipitation (IP) with 30 μl of anti-flag resin (SIGMA) for 2 hours at 4° C., washed twice in cold lysis buffer plus 0.5M NaCl and resuspended in 1 ml of cold cytosolic buffer (40 mM HEPES pH 7.4, 140 mM KCl, 10 mM NaCl, 2.5 mM MgCl2, 0.1% TritonX-100). Compounds were then added to each sample at a given concentration of 25 μM and incubated with rotation at 4° C. for 30 minutes. After the incubation period, samples were centrifuged to pellet the Flag-WDR24/endogenous-Sestrin2 complex bound to the anti-flag resin, the supernatant was completely removed and resin was resuspended in sodium dodecyl sulfate-polyacrylamide gel electrophoresis (SDS-PAGE) sample buffer and boiled for 5 minutes. […]

mTORC1 = test: Western blot of pS6 in rat brain and selected peripheral organs; type: in vivo; details: Example D; Leu 500 mg/kg oral; 1 hr post-dose
Experimental: Study Design: Thirty (30) male rats weighing between 175 and 200 g were randomized into 3 study groups (n=10), following a 5-day acclimation period. One hour following dosing rats were sacrificed by conscious decapitation, plasma, brain and selected peripheral tissues were harvested for compound level and WB analysis. Tissues were prepared for WB to quantitate the mTORC1 substrate pS6 as a measure of mTORC1 activity.
The dosing volume based on the weight of the animal (10 mL/kg) was administered by oral gavage. Test articles were prepared the day of dosing.
Tissues Preparations: One hour following dosing rats were sacrificed by conscious decapitation, plasma, brain and peripheral tissues were harvested and immediately frozen in liquid nitrogen. Tissues were thawed and homogenized for 1 min twice using MP homogenizer in Lysis Buffer (Cell lysis buffer: 1% Triton X-100, 50 mM HEPES pH 7.4, 100 mM NaCl, 2 mM EDTA, 10 mM Beta-glycerophosphate, 10 mM Sodium pyrophosphate, and 1 protease inhibitor tab per 50 mL fresh) at 4° C. Lysates were then sonicated on ice for 20 s at 50% amplitude. The protein concentration was determined by Bradford assay and all samples were mixed with loading buffer (50 mM Tris-HCl pH 6.8, 2% SDS, 5% glycerol, 5% β-mercaptoethanol and 0.01% Bromophenol blue) and stored at −20° C. until WB analysis.
Western Blot (WB) Analysis. Equal amounts of each sample (15 μg of total protein) were loaded and separated on NuPAGE 4-12% Bis-Tris gels and transferred to PVDF membrane (Immobilon-FL PVDF membrane, Millipore) using CAPS Buffer (10 mM 3-(Cyclohexylamino)-1-propanesulfonic acid, 12.5% Ethanol pH=10). After transfer, membranes were incubated for 1 hr at room temperature in Odyssey blocking buffer (Licor). After blocking, membranes were incubated at 4° C. overnight with primary antibodies. Primary antibodies used were rabbit anti-[…] (cell signaling; #5364) at 1:1000, mouse anti-GAPDH (Sigma; #G8795) at 1:1000 and mouse anti-a-tubulin (Sigma; #T5168) at 1:10000 in Odyssey blocking buffer. The next day, membranes were washed three times in 1×TBS-Tween (25 mM Tris, pH 7.4, 3.0 mM KCl, 140 mM NaCl and 0.05% Tween-20) and incubated with dye-coupled secondary antibodies (goat anti-mouse IRdye680, and goat anti-rabbit IRdye800 from LI-COR) at 1:20000 in Odyssey blocking buffer for 30 min then wash three times in IX TBS-Tween. Signals were quantified using the Odyssey Infrared Imaging System (LI-COR Bioscience). The resulting densitometric readings were used to generate a ratio of phopho-protein to a-tubulin or GAPDH. The resulting ratio was further normalized to vehicle treated control group.

[2] = tested on: point mutant form of Sestrin2 unable to bind leucine; test: ILBA with Flag-tagged point mutant Sestrin2; type: binding, human
Experimental: In one version, the assay was performed with crude lysate generated from a human cell line after a 1-hour period of amino acid starvation (cells are lysed in 1% Triton, 10 mM beta-glycerol phosphate, 10 mM sodium pyrophosphate, 40 mM HEPES [pH 7.4], 150 mM NaCl and 2.5 mM MgCl2). […] After compound incubation, samples were subjected to immunoprecipitation with the CST anti-Sestrin2 antibody for 1.5 hours followed by a 30-minute incubation with protein-A sepharose as described in L. Chantranupong, et al., Cell Reports 9:1-8 (2014). The sepharose conjugated antibody-protein complex was precipitated via centrifugation and the flow-through was subjected to a second round of immunoprecipitation with a rabbit polyclonal anti-Sestrin2 antibody (Protein Tech, #10795-1-AP) to determine that total Sestrin2 protein levels between samples were equal. SDS-PAGE was performed with the immunoprecipitation samples followed by western-blot with the mouse monoclonal anti-Sestrin2 antibody from SIGMA (cat #WH0083667M3).
This assay was also performed in cultured human cells over-expressing Sestrin2 N-terminally fused to a Flag tag. In this version of the assay, the procedure remained the same, but immunoblotting was performed with a mouse anti-Flag antibody (#F3165, SIGMA).

| Structure (SMILES) | Cell-Based mTORC1 Activation (mTORC1 signaling) | Activity of Leucine: % Activity [1] | pS6 levels in rat brain (mTORC1) | decrease in affinity of the CST antibody upon ligand binding [2] |
| --- | --- | --- | --- | --- |
| C[C@H](CC(N)C(=O)O)C(F)(F)F (stereo in doubt) [Compound I-167, (2R,4R)-2-amino-5,5,5-trifluoro-4-methylpentanoic Acid] | D to F | A (a % activity relative to leucine of ≥40%) |  |  |
| CC(C)C[C@H](N)C(N)=O.Cl [Compound I-23] | D to F | C (a % activity relative to leucine of between -40 and 40%) |  |  |
| N[C@@H](CC1CCC1)C(=O)O [Compound I-37] | E to F | A (a % activity relative to leucine of ≥40%) |  |  |
| NC(CCCC(F)(F)F)C(=O)O (stereo not shown) [Compound I-42] | D to F | A (a % activity relative to leucine of ≥40%) |  |  |
| CC(C)(C)C[C@H](N)C(=O)O [Compound I-43] | D to E | A (a % activity relative to leucine of ≥40%) |  |  |
| COC(=O)[C@@H](N)CC(C)C [Compound I-168] | D to E |  |  |  |
| CC(C)C[C@H](N)C(=O)O [Leu, Leucine, reference compound] |  |  | no activation was observed |  |
| CC(C)(C)C[C@H](N)C(=O)O [γ-methylleucine] |  |  |  | not observed |
